The text below walks through data of patent US20250288599A1, “PHARMACEUTICAL COMPOSITIONS AND METHODS FOR TREATING OSTEOARTHRITIS” (INSIGNIA PHARMACEUTICALS, LLC, priority 2024, published 2025).

Like-named read-outs stand apart in the source and are kept apart here.

The conditions of data set [1]: cited from earlier work.
The test system of data set [2] is Col2a1 expression in dedifferentiated osteoarthritic chondrocytes. Description: Col2a1 relative expression in high passage osteoarthritic chondrocyte monolayer model with TGF-β. Format: cell-based, human. As to conditions: TGF-β added to the model; 1 mM Try, 0.5 mM DA. The procedure:
(§1) These compounds were tested in a high passage osteoarthritic chondrocyte monolayer model, alone or in combination with other agents, for both transcriptional regulation of standard markers and IL-1β-induced PGE2 production.

Data set [3] has as its system PGE2 in primary human osteoarthritic synoviocytes. Description: Early, pretreatment and intracellular vs secreted PGE2 in IL-1β-stimulated human osteoarthritic synoviocytes. In kind it is cell-based. How it is done: The concentrations in FIG. 31A were measured at hour three.
Cells were also treated with IL-IRA which inhibits IL-1β by binding the cell-surface […] and inhibiting its dimerization with the IL-1 receptor (IL-1R), effectively blocking IL-1β signaling.
FIG. 33 illustrates two bar graphs that depict the concentrations of PGE2 inside of the cell versus PGE2 that was secreted into the cell culture media. Specifically, the bar graph labeled “Intracellular” illustrates the concentrations of PGE2 inside of the cell and the bar graph labeled “Supernatent” illustrates the concentration of PGE2 that was secreted into the cell culture media. Synoviocytes were stimulated with IL-1β for 6 hours and then cell culture media harvested separately along with collecting cell lysates. […] To test this, the PGE2 concentrations inside of the cells and in the cell culture media were measured to compare them directly to each other.

The test system of data set [4] is PGE2 release from normal human chondrocytes. Put plainly: IL-1β-induced PGE2 release from normal human chondrocytes, 24 h, DA vs decanoate working solutions. The settings on record: Homo sapiens, Chondrocyte, 25 micromolar, prepared in medium. In kind it is cell-based. The procedure:
The activity of DA working solutions prepared in either saline or lactated ringer's (LR) isotonic solutions was assessed. […] In addition, concentrated decanoate working solutions in saline or LR were prepared and added to the cultures at a final concentration of 25 micromolar. PGE2 release was then compared to matching points on the DA or decanoate medium as well as saline and LR controls.

Data set [5] concerns SOX9 expression in human osteoarthritic chondrocytes. Put plainly: SOX9 relative expression in high and low passage osteoarthritic chondrocytes, 7, 14 or 28 days. The settings on record: high passage, dedifferentiated osteoarthritic chondrocytes with TGF-β3, 14 days. Format: cell-based. An excerpt:
Media was exchanged bi-weekly. […] SOX9 is a transcription factor vital to the development and maintenance of cartilage and is required for chondrogenesis. SOX9 promotes chondrocyte survival and transcriptionally activates cartilage-specific genes. SOX9 is repressed in hypertrophic chondrocytes (i.e. terminally differentiated osteoblast-like cells).

Data set [6] has as its system PGE2 release from normal human chondrocytes. Description: IL-1β-induced PGE2 release from normal human chondrocyte monolayers, 48 h, competitive EIA. In kind it is cell-based. How it is done:
Mechanical stress and inflammation are thought to sustain catabolic cycles of extracellular matrix deterioration during osteoarthritis. In particular, PGE2 correlates with increased protease production and discomfort or pain in osteoarthritis.
After 48-hours, PGE2 release was evaluated by competitive EIA, and relative potency was calculated versus dose responses of Dex alone.
After 48 hours, PGE2 release was evaluated by competitive enzyme immunoassay (EIA), and relative potency was calculated versus Dex alone.
Lac is commonly thought to be simply an end-product of anaerobic glycolysis; however, it may also have immunomodulatory effects and promote protein modifications that alter gene expression. The goal of this experiment was to determine how Lac supplementation affects early-phase, inflammatory, and late-stage redifferentiation in chondrocyte models. To establish how Lac may influence inflammation early in osteoarthritis, monolayers of normal human chondrocytes were exposed to Lac dose responses of up to 100 millimolar, concurrently with 0.5 nanograms per milliliter IL-1β for 48 hours. The release of PGE2 was then quantified using competitive EIA. To investigate how Lac affects transcriptional programs in dedifferentiated osteoarthritic chondrocytes, monolayer cultures and micromass pellets were treated for 14 days with 100 millimolar final concentrations of Lac, with and without 10 nanograms per milliliter transforming growth factor beta 3 (TGF-β3). Total RNA was then isolated, and relative expression of SOX9 or Col2a1 was calculated using qRT-PCR, normalized to GAPDH.

The target of data set [7] is PLA2 isolated from bee venom (Apis mellifera, UniProt P00630). Format: biochemical.
Data set [8] deals with arachidonic acid (AA) in primary human synoviocytes. Put plainly: Early arachidonic acid in IL-1β-stimulated primary human osteoarthritic synoviocytes, 3 h. In kind it is cell-based. As to conditions: IL-1β 1 ng/mL. The procedure: Early concentrations of arachidonic acid (AA) present in primary human synoviocytes from patients with osteoarthritis that were stimulated with 1 ng/mL final concentration interleukin 1-beta (β) for 3 hours in the presence of varying concentrations of Dex and DA in view of controls are depicted in FIG. 32. The concentrations of AA in FIG. 32 were normalized to total protein content from the cell lysates using bicinchoninic acid (BCA).

Data set [9] relates to MCP1 in osteoarthritic human synoviocytes. Description: IL-1β-induced MCP1 in osteoarthritic-synoviocytes. The settings on record: IL-1β 0.5 ng/mL; 0.5, 0.8 or 1 millimolar DA; 0.1-100 nanomolar Dex. Format: cell-based.
The subject of data set [10] is MMP13 expression in dedifferentiated osteoarthritic chondrocytes. Put plainly: MMP13 regulation in high passage osteoarthritic chondrocyte monolayer model, 28 days. Format: cell-based, human. The settings on record: 28 days of treatment; 1 mM Try, 0.5 mM DA. How it is done: as §1
Data set [11] deals with IL-1β release from human THP1 macrophages. Put plainly: Two-hit (LPS then ATP) inflammasome activation model, IL-1β release from THP1 macrophages. Format: cell-based. The settings on record: for IC50: Homo sapiens. The text has this: The proinflammatory cytokine, IL-1β, is released from cells upon activation of the inflammasome, a multi-protein proinflammatory complex. A two-hit model of inflammasome activation in THP1 macrophages was developed that entails an overnight stimulation with LPS followed by a second proinflammatory stimulus, extracellular ATP, which drives inflammasome assembly and subsequent IL-1β release from the cells into the media.

The subject of data set [12] is PGE2 release from osteoarthritic human synoviocytes. Description: IL-1β-induced PGE2 and PGD2 release from osteoarthritic-synoviocytes. As to conditions: for IC50: Homo sapiens, read-out: IC50 for PGE2 inhibition. Format: cell-based.
The target of the next data set is Cyclooxygenase-2 (COX-2) (Homo sapiens, UniProt P35354). Put plainly: COX-2 inhibitor screen. In kind it is biochemical. The settings on record: any of the concentrations tested; Celecoxib positive control.
Data set [13] deals with prostaglandin I2 (PGI2) in primary human synoviocytes. Put plainly: PGI2 in IL-1β-stimulated primary human osteoarthritic synoviocytes, 24 h. Format: cell-based. As to conditions: IL-1β 1 ng/ml. How it is done: FIG. 25 is a bar graph that depicts the concentration of prostaglandin I2 (PGI2) present in primary human synoviocytes from patients with osteoarthritis that were stimulated with 1 ng/ml final concentration of IL-1β for 24 hours in the presence of varying concentrations of DA and Dex in view of controls. PGI2 concentration response mirrored PGE2 concentrations after DA treatment. […] It is noted that prostaglandin H2 (PGH2) was also tested and was not detected in either cell culture media or from cell lysates. Without being bound by theory, it is believed that PGH2 is an intermediate and is (near) immediately converted into downstream prostaglandins and therefore levels of PGH2 are not detectable.

Data set [14] deals with Col2a1 expression in human osteoarthritic chondrocytes. Put plainly: Col2a1 relative expression in human osteoarthritic chondrocytes treated with DA and/or Try with TGF-β3. Format: cell-based. As to conditions: 14-day monolayer culture with TGF-β3; 0.5 mM DA, 1 mM Try.
Experimental: (§2) Total mRNA was then isolated at the indicated times, and qRTPCR was performed with primers specific for MMP13, Col2a1, and the housekeeping gene GAPDH. Relative expression was then calculated versus controls, with normalization to GAPDH.
Data set [15] concerns MMP13 expression in human osteoarthritic chondrocytes. Put plainly: MMP13 relative expression in human osteoarthritic chondrocytes treated with DA and/or Try. Format: cell-based. The settings on record: 28-day monolayer culture; 0.5 mM DA, 1 mM Try.
Experimental: as §2

PLA2 isolated from bee venom, sequence (P00630 34-167 limits assumed): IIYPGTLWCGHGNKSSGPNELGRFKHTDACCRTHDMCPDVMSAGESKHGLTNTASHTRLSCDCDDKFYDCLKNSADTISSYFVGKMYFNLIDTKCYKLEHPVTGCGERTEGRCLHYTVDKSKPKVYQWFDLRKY
Cyclooxygenase-2 (COX-2), sequence (P35354 18-604, species assumed): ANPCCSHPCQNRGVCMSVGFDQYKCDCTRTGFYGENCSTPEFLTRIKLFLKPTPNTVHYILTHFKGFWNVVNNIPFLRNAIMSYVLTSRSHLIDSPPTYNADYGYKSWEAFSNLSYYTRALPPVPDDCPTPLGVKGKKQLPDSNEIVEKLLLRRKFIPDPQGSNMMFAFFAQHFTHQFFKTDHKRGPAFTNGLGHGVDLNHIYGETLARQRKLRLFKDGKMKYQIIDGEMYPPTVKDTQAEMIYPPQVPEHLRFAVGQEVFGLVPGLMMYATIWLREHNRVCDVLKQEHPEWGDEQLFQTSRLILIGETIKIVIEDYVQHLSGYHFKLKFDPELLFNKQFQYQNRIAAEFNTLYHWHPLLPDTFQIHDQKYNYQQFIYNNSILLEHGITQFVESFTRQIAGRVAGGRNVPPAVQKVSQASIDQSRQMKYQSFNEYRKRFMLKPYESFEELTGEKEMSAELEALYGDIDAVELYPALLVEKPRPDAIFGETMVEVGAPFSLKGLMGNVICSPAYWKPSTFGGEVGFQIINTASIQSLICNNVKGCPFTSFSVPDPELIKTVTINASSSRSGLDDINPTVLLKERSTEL
Text for Cyclooxygenase-2 (COX-2): Celecoxib (Celebrex) was used as a positive control for COX-2.

Usually inhibition stands for the relative decrease from the control value, in per cent. For orientation: IC50 means the midpoint of a concentration-inhibition curve. Regarding `CCCCCCCCCC(=O)O` [DA, decanoic acid], in data set [1], the “pKa (negative log of acid dissociation constant)” value is listed as “about 4.9”. In [2], the Col2a1 regulation came out at 26 fold. Moreover, the “PGE2 release after pretreatment (5 minutes, 1 hour, or 2 hours) then IL-1β 10 minutes or 1 hour” value in [3] (200 nanomolar DA or 500 nanograms/milliliter IL-1RA, IL-1β 1 nanogram/milliliter) is given as “blocked the low-level activation”. The “intracellular versus secreted PGE2” value in [3] (IL-1β 1 ng/ml, 6 hours) was “causes PGE2 to build up intracellularly instead of getting secreted”. Besides, the PGE2 concentration entry in data set [3] (measured at hour three, IL-1β 1 ng/mL) is listed as “less than 5000 pg/ml”. Further, at 25 µM the inhibition in data set [4] was 62.4%. In [5], the SOX9 expression result is “increased SOX9 transcription”. This compound came in with an inhibition at 500 µM in data set [6] (Homo sapiens, Chondrocyte, DA 500 micromolar final, IL-1β 500 pg/mL, 48 h) of 100%. Further, in [6] (p-value≤0.05 versus medium controls), the “final concentration at which significant inhibition of PGE2 release was observed” value was determined as 6 µM. Also, in data set [7], the PLA2 activity inhibition entry is “no significant signs of PLA2 activity inhibition”. In addition, the “AA concentration normalized to total protein” value in data set [8] was “lower than that of the control with IL-1β”. Moreover, the “effect on MCP1” value in [9] is recorded as “reduction in MCP1 in a dose dependent manner”. Moreover, the MMP13 regulation in data set [10] came to 1.12 fold. Moreover, the “increased DA potency by 25 nanomolar Dex” value in data set [11] was 1.917 ×. Also, the half-inhibitory concentration (IC50) in [11] (THP-1, DA alone, 0.02 to 1.8 millimolar, three independent experiments) was determined as 125 µM; in data set [11] (THP-1, DA with addition of 25 nanomolar Dex), 65 µM; in [11] (THP-1, repeated experiments comparing DA to sodium decanoate) it was 172 µM; in data set [12] (DA alone, IL-1β 0.5 ng/mL) it was 19.4 µM; in data set [12] (DA in the presence of 100 picomolar Dex) it was 8.62 µM. In addition, the “increase of DA potency by 100 picomolar Dex” value in data set [12] came out at 2.2 ×. Also, the “DA concentration above which PGE2 and PGD2 release was inhibited” value in [12] (IL-1β 0.5 ng/mL) was “above 1 micromolar”. The “inhibition of COX-2 activity” value at Cyclooxygenase-2 (COX-2) is recorded as “no observed inhibition”. The “secreted PGI2 levels” value in [13] is on record as “decreases secreted PGI2 levels”.

Turning to `N[C@@H](Cc1c[nH]c2ccccc12)C(=O)O` [Try, tryptophan], the Col2a1 regulation in data set [2] was −1.36 fold. The MMP13 regulation in data set [10] was −3.32 fold. The “Observed Relative expression of Col2a1” value in data set [14] is given as −1.4 fold. In addition, in [15], the “Observed Relative expression of MMP13” value is listed as −2.6 fold.
